Test results as given in ChEMBL document CHEMBL1125452, “Rationally designed "dipeptoid" analogues of CCK. A Free-Wilson/Fujita-Ban analysis of some alpha-methyltryptophan derivatives as CCK-B antagonists” (J Med Chem, 1992).

What follows are molecules tested against T1, Gastrin/cholecystokinin type B receptor (Mus musculus, UniProt P56481) (assay: Cholecystokinin type B receptor binding assay performed on homogenized cerebral cortex from male mouse).
T1 sequence (P56481 whole entry): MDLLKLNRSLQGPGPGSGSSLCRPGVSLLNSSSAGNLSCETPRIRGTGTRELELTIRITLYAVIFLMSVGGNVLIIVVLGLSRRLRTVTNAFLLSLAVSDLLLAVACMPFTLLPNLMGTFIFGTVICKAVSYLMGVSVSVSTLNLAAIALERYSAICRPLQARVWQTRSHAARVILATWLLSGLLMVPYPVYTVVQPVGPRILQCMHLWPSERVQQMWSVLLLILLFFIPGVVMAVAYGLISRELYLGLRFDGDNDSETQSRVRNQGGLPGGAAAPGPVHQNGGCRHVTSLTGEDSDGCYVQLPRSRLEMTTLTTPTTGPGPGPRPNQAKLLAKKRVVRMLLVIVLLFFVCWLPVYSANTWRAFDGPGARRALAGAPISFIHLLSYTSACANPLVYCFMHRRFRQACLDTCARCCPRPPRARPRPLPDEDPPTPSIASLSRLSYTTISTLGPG
Assay type: tissue-based

Q: With `C[C@](Cc1c[nH]c2ccccc12)(NC(=O)OC1C2CC3CC(C2)CC1C3)C(=O)N[C@H](CO)Cc1ccccc1` (some centres not stated) as the molecule, how does the Ki read?
A: The Ki was 6.03 nM.

Q: With `C[C@@](Cc1c[nH]c2ccccc12)(NC(=O)OC1C2CC3CC(C2)CC1C3)C(=O)N[C@H](CNC(=O)CCC(=O)O)Cc1ccccc1` (some centres not stated) as the molecule, how does the Ki read?
A: Its Ki is 166 nM.

Q: With `O=C(O)CCC(=O)NC(CNC(=O)[C@@H](Cc1c[nH]c2ccccc12)NC(=O)OC1C2CC3CC(C2)CC1C3)c1ccccc1` (some centres not stated) as the molecule, how does the Ki read?
A: The Ki was 355 nM.

Q: With `O=C(O)CCC(=O)N[C@@H](CNC(=O)[C@H](Cc1c[nH]c2ccccc12)NC(=O)OC1C2CC3CC(C2)CC1C3)c1ccccc1` (some centres not stated) as the molecule, how does the Ki read?
A: Its Ki is 977 nM.

Q: For `CC1(C)[C@H]2CC[C@@]1(C)[C@@H](OC(=O)N[C@](C)(Cc1c[nH]c3ccccc13)C(=O)NC[C@H](NC(=O)CCC(=O)O)c1ccccc1)C2`, which Ki is on record?
A: The Ki was 2.04 nM.

Q: How did the Ki turn out when `O=C(O)C[C@@H](Cc1ccccc1)NC(=O)[C@H](Cc1c[nH]c2ccccc12)NC(=O)OC1C2CC3CC(C2)CC1C3` (some centres not stated) was run?
A: Its Ki is 93.3 nM.

Q: With `CC1(C)C2CCC1(C)[C@@H](OC(=O)N[C@@H](Cc1c[nH]c3ccccc13)C(=O)NC[C@H](NC(=O)CCC(=O)O)c1ccccc1)C2` (some centres not stated) as the molecule, how does the Ki read?
A: The Ki was 398 nM.

Q: How did the Ki turn out when `C[C@@H]1CCCC[C@H]1OC(=O)NC(C)(Cc1c[nH]c2ccccc12)C(=O)NCCc1ccccc1` (some centres not stated) was run?
A: Its Ki is 135 nM.

Q: `C[C@@H]1CCCC[C@H]1OC(=O)N[C@](C)(Cc1c[nH]c2ccccc12)C(=O)N[C@H](CNC(=O)/C=C/C(=O)O)Cc1ccccc1` was tested. Which Ki did it give?
A: The Ki was 1.15 nM.

Q: For `O=C(O)C[C@@H](Cc1ccccc1)NC(=O)[C@@H](Cc1c[nH]c2ccccc12)NC(=O)OC1C2CC3CC(C2)CC1C3` (some centres not stated), which Ki is on record?
A: Its Ki is 138 nM.

Q: With `CC1(C)C2CCC1(C)[C@@H](OC(=O)N[C@H](Cc1c[nH]c3ccccc13)C(=O)NC[C@H](NC(=O)/C=C/C(=O)O)c1ccccc1)C2` (some centres not stated) as the molecule, how does the Ki read?
A: The Ki was 81.3 nM.

Q: How did the Ki turn out when `CC(Cc1c[nH]c2ccccc12)(NC(=O)O[C@H]1CC2CCC1(C)C2(C)C)C(=O)NCCc1ccccc1` (some centres not stated) was run?
A: Its Ki is 126 nM.

Q: `C[C@](Cc1c[nH]c2ccccc12)(NC(=O)OC12CC3CC(CC(C3)C1)C2)C(=O)N[C@H](CO)Cc1ccccc1` was tested. Which Ki did it give?
A: The Ki was 20.4 nM.

Q: How did the Ki turn out when `C[C@@H]1CCCC[C@H]1OC(=O)N[C@](C)(Cc1c[nH]c2ccccc12)C(=O)NC[C@H](NC(=O)CCC(=O)O)c1ccccc1` was run?
A: The Ki was 3.72 nM.

Q: For `CC1(C)C2CCC1(C)C(OC(=O)N[C@](C)(Cc1c[nH]c3ccccc13)C(=O)N[C@H](CO)Cc1ccccc1)C2` (some centres not stated), which Ki is on record?
A: Its Ki is 15.5 nM.

Q: For `CC1(C)C2CCC1(C)[C@@H](OC(=O)N[C@H](Cc1c[nH]c3ccccc13)C(=O)NC[C@H](NC(=O)CCC(=O)O)c1ccccc1)C2` (some centres not stated), which Ki is on record?
A: The Ki was 302 nM.

Q: How did the Ki turn out when `C[C@@H]1CCCC[C@H]1OC(=O)N[C@](C)(Cc1c[nH]c2ccccc12)C(=O)NC[C@H](NC(=O)/C=C/C(=O)O)c1ccccc1` was run?
A: The Ki was 3.89 nM.

Q: With `C[C@](Cc1c[nH]c2ccccc12)(NC(=O)OC1C2CC3CC(C2)CC1C3)C(=O)NC[C@H](NC(=O)/C=C/C(=O)O)c1ccccc1` (some centres not stated) as the molecule, how does the Ki read?
A: The Ki was 0.513 nM.

Q: `CC1(C)C2CCC1(C)[C@@H](OC(=O)N[C@](C)(Cc1c[nH]c3ccccc13)C(=O)NC[C@H](NC(=O)/C=C/C(=O)O)c1ccccc1)C2` (some centres not stated) was tested. Which Ki did it give?
A: Its Ki is 2.19 nM.

Q: How did the Ki turn out when `C[C@](Cc1c[nH]c2ccccc12)(NC(=O)OC1C2CC3CC(C2)CC1C3)C(=O)N[C@H](CNC(=O)/C=C/C(=O)O)Cc1ccccc1` (some centres not stated) was run?
A: Its Ki is 0.708 nM.

Q: Which Ki does the source give for `C[C@@H]1CCCC[C@H]1OC(=O)N[C@](C)(Cc1c[nH]c2ccccc12)C(=O)N[C@H](CNC(=O)CCC(=O)O)Cc1ccccc1` here?
A: The Ki was 12.3 nM.

Q: For `C[C@](Cc1c[nH]c2ccccc12)(NC(=O)OC1C2CC3CC(C2)CC1C3)C(=O)N[C@H](CNC(=O)CCC(=O)O)Cc1ccccc1` (some centres not stated), which Ki is on record?
A: The Ki was 3.98 nM.

Q: `CC(Cc1c[nH]c2ccccc12)(NC(=O)OC12CC3CC(CC(C3)C1)C2)C(=O)NCCc1ccccc1` (configuration not stated) was tested. Which Ki did it give?
A: Its Ki is 191 nM.

Q: How did the Ki turn out when `O=C(N[C@H](Cc1c[nH]c2ccccc12)C(=O)N[C@H](CO)Cc1ccccc1)OC1C2CC3CC(C2)CC1C3` (stereo in doubt; 9) was run?
A: The Ki was 813 nM.

Q: How did the Ki turn out when `O=C(N[C@H](Cc1c[nH]c2ccccc12)C(=O)N[C@H](CO)Cc1ccccc1)OC1C2CC3CC(C2)CC1C3` (stereo in doubt; 10) was run?
A: The Ki was 2090 nM.

Q: With `C[C@@H]1CCCC[C@H]1OC(=O)N[C@](C)(Cc1c[nH]c2ccccc12)C(=O)N[C@H](CO)Cc1ccccc1` (stereo in doubt; 11) as the molecule, how does the Ki read?
A: The Ki was 15.1 nM.

Q: Which Ki does the source give for `C[C@@H]1CCCC[C@H]1OC(=O)N[C@](C)(Cc1c[nH]c2ccccc12)C(=O)N[C@H](CO)Cc1ccccc1` (stereo in doubt; 28) here?
A: Its Ki is 8.91 nM.
